The structures appear in SMILES notation. A value given as a limit tells only on which side of the number the result lay.

Experimental findings from ChEMBL document CHEMBL2163297, “Discovery of novel PI3-kinase δ specific inhibitors for the treatment of rheumatoid arthritis: taming CYP3A4 time-dependent inhibition” (J Med Chem, 2012) are described below.

The nature of data set [1]: Selectivity ratio of IC50 for PI3Kbeta to IC50 for PI3Kdelta.
The target of data set [2] is T1, Cytochrome P450 3A4 (Homo sapiens, UniProt P08684). As to the kind of experiment: Time dependent inhibition of CYP3A4 in human liver microsomes preincubated for 30 mins. In kind it is ADME, Microsome.
T1 sequence (P08684 whole entry): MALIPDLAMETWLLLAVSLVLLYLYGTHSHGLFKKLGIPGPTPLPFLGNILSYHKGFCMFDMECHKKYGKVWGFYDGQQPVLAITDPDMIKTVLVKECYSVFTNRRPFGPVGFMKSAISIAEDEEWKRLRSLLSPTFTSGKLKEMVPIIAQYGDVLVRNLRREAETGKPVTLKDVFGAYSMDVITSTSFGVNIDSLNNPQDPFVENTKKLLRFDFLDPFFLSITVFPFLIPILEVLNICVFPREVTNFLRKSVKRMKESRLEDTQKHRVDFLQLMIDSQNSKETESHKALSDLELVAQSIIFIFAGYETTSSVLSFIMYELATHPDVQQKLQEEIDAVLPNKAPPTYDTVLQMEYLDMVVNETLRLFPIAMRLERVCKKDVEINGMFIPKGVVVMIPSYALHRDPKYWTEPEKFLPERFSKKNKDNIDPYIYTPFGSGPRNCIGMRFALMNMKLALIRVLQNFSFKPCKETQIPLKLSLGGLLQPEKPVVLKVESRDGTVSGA
The nature of data set [3]: Selectivity ratio of IC50 for PI3Kalpha to IC50 for PI3Kdelta.
Data set [4] concerns the target T2, Phosphatidylinositol 4,5-bisphosphate 3-kinase catalytic subunit delta isoform (Homo sapiens, UniProt O00329).
T2 sequence (O00329 whole entry): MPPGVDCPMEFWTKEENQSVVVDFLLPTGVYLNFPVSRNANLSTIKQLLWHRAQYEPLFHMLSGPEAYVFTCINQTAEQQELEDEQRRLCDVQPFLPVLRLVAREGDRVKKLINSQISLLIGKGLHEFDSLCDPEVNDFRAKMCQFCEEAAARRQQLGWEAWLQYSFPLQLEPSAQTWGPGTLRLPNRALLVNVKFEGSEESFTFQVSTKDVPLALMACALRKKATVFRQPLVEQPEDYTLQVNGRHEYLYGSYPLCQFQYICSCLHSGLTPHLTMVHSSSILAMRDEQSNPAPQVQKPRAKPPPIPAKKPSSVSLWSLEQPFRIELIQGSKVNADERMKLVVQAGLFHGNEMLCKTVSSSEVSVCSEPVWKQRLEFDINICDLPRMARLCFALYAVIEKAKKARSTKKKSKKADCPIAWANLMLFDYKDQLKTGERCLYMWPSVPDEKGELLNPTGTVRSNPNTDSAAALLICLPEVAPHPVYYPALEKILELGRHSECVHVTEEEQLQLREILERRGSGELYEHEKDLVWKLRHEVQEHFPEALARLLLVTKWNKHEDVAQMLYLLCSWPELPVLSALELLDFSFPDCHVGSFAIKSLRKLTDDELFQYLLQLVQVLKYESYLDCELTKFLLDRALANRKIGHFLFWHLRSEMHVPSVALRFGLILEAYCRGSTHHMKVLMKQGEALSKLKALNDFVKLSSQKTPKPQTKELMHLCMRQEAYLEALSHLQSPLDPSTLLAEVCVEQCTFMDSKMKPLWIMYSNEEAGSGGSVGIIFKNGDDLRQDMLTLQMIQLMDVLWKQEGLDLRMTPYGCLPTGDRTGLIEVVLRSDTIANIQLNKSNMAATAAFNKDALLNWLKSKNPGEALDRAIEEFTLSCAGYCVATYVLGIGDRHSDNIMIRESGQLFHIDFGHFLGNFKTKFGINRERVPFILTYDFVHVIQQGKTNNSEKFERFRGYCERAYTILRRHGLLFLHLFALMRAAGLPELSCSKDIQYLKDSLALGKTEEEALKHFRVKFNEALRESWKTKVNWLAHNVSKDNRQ
Description: Binding affinity to PI3Kdelta after 30 mins by competitive fluorescence polarization assay

A short description of data set [5]: Selectivity ratio of IC50 for PI3Kgamma to IC50 for PI3Kdelta.
The target of data set [6] is T2, Phosphatidylinositol 4,5-bisphosphate 3-kinase catalytic subunit delta isoform. As to the kind of experiment: Inhibition of human PI3Kdelta-mediated AKT phosphorylation at S473 in Ri-1 cells after 30 mins by electrochemiluminescence assay in presence of human serum albumin and alpha1 acid glycoprotein. Format: cell-based.
For data set [7], the target named is T1, Cytochrome P450 3A4. As to the kind of experiment: Inhibition of CYP3A4 in human liver microsomes. Format: ADME, Microsome. To be noted: TDE = time-dependent effect.
Data set [8] has as its target T3, Phosphatidylinositol 4,5-bisphosphate 3-kinase catalytic subunit delta isoform (Homo sapiens) (UniProt O00329).
T3 sequence (whole entry): T2 sequence (O00329 whole entry)
As to the kind of experiment: Ratio of IC50 for human PI3Kdelta-mediated AKT phosphorylation at S473 in Ri-1 cells to IC50 for PI3Kdelta. In kind it is cell-based.

Regarding `CC(C)(C(N)=O)N1CCN(Cc2cc3nc(-c4nccc5[nH]ccc45)nc(N4CCOCC4)c3s2)CC1`, the Ratio IC50 in data set [1] is 46; in data set [3], 86; in data set [5], 2830. Also, the concentration for half-maximal inhibition (IC50) in data set [2] was over 10 µM; in data set [4], 3.5 nM.
For `Cn1ccc2c(-c3nc(N4CCOCC4)c4sc(CN5CCN(C(C)(C)C(N)=O)CC5)cc4n3)cccc21` the same measures were 75, 18, 75, over 10 µM and 134 nM.
For the compound `CC(C)(C(N)=O)N1CCN(Cc2cc3nc(-c4ccnc5[nH]ccc45)nc(N4CCOCC4)c3s2)CC1`, the values for the Ratio IC50 in data set [1], in data set [3] and in data set [5] were 103, 30 and 81, respectively. The results for the IC50 in data set [2] and in data set [4] were under 0.1 µM and 2.3 nM, respectively.
As to `CN(C)C1CCN(Cc2cc3nc(-c4cccc5nccn45)nc(N4CCOCC4)c3s2)CC1`, the IC50 stood at 180 nM in data set [6] and 27 nM in data set [4]. The Ratio IC50 in data set [3] is 21.
On to `CCc1nc2ccccc2n1-c1nc(N2CCOCC2)c2sc(CN3CCC(C(C)(C)O)CC3)cc2n1`, for which, in data set [2], the IC50 was over 10 µM.
For the compound `CC(C)(C(N)=O)N1CCN(Cc2cc3nc(-c4cc(C#N)cc5[nH]ccc45)nc(N4CCOCC4)c3s2)CC1`, the Ratio IC50 in data set [1] is 275; in data set [3], 208; in data set [5], 691. The IC50 in data set [2] stood at 1.2 µM; in data set [4] it was 3.2 nM.
For `CC(C)(C(N)=O)N1CCN(Cc2cc3nc(-c4cc(F)cc5[nH]ccc45)nc(N4CCOCC4)c3s2)CC1` the same measures were 80, 77, 566, 0.51 µM and 0.48 nM.
On to `CC(C)(C(N)=O)N1CCN(Cc2cc3nc(-c4cccc5[nH]ccc45)nc(N4CCOCC4)c3s2)CC1`, for which the Ratio IC50 in data set [1] amounted to 104; in data set [3], 129; in data set [5], 1440. Also, the “inhibition (INH)” value in data set [7] is “tde”. This compound showed an IC50 in data set [4] of 1.8 nM.
For the compound `CS(=O)(=O)N1CCN(Cc2cc3nc(-c4cccc5[nH]ccc45)nc(N4CCOCC4)c3s2)CC1`, the Ratio IC50 came out at 25 in data set [1], 22 in data set [3] and 268 in data set [5]. Besides, in data set [7], the “inhibition (INH)” value is “tde”. This compound gave an IC50 in data set [4] of 1.7 nM.
Regarding `CC(C)(C(N)=O)N1CCN(Cc2cc3nc(-c4cncc5[nH]ccc45)nc(N4CCOCC4)c3s2)CC1`, the figures for the Ratio IC50 in data set [1], in data set [3] and in data set [5] were 40, 41 and 243, respectively. Moreover, the IC50 worked out at 3.2 µM in data set [2] and 0.67 nM in data set [4].
With `CCc1nc2ccccc2n1-c1nc(N2CCOCC2)c2sc(CN3CCN(S(C)(=O)=O)CC3)cc2n1`, the Ratio IC50 in data set [1] was 12; in data set [3], 2; in data set [5], 14. Also, the half-inhibitory concentration (IC50) was over 10 µM in data set [2], 79 nM in data set [6] and 4.3 nM in data set [4].
Turning to `CN(C)C1CCN(Cc2cc3nc(-c4c[nH]c5ccccc45)nc(N4CCOCC4)c3s2)CC1`, the Ratio IC50 in data set [3] turned out to be 88. In data set [4], 5.6 nM corresponded to half-maximal inhibition (IC50).
As for `Cc1nc2ccccc2n1-c1nc(N2CCOCC2)c2sc(CN3CCN(C(C)(C)C(N)=O)CC3)cc2n1`, the Ratio IC50 in data set [1] is 111; in data set [3], 17; in data set [5], 134. The figures for the half-inhibitory concentration (IC50) in data set [2] and in data set [4] were over 10 µM and 4.3 nM, respectively.
On to `CN(C)C1CCN(Cc2cc3nc(-c4c(F)ccc5[nH]ccc45)nc(N4CCOCC4)c3s2)CC1`, for which the IC50 in data set [2] came to 9.1 µM; in data set [6], 29 nM; in data set [4] it was 1.8 nM. The Ratio IC50 in data set [8] was 16; in data set [3], 226.
On to `CCc1nc2ccccc2n1-c1nc(N2CCOCC2)c2sc(CN3CCN(C4COC4)CC3(C)C)cc2n1`, for which the Ratio IC50 in data set [1] is 815; in data set [3], 50; in data set [5], 112. Besides, the 50% inhibitory concentration (IC50) in data set [2] is over 10 µM; in data set [6], 102 nM; in data set [4], 2.3 nM.
For the compound `CC(C)(C(N)=O)N1CCN(Cc2cc3nc(-c4cccc5[nH]ncc45)nc(N4CCOCC4)c3s2)CC1`, the Ratio IC50 in data set [1] was 54; in data set [3], 9; in data set [5] it was 153. In data set [4], this compound gave an IC50 of 3.1 nM.
With `Cc1nc2ccccc2n1-c1nc(N2CCOCC2)c2sc(CN3CCC(N(C)C)CC3)cc2n1`, the results for the Ratio IC50 in data set [1], in data set [3] and in data set [5] were 252, 29 and 233, respectively. Moreover, the IC50 in data set [2] was over 10 µM; in data set [6], 374 nM; in data set [4], 2.7 nM.
As for `Cc1cc2c(-c3nc(N4CCOCC4)c4sc(CN5CCN(C(C)(C)C(N)=O)CC5)cc4n3)cccc2[nH]1`, the Ratio IC50 was 101 in data set [1], 122 in data set [3] and 715 in data set [5]. Besides, the IC50 in data set [2] was under 0.1 µM; in data set [4], 1.1 nM.
On to `CN(C)C1CCN(Cc2cc3nc(-n4cnc5ccccc54)nc(N4CCOCC4)c3s2)CC1`, for which the IC50 in data set [6] was 970 nM; in data set [4] it was 23 nM. Moreover, the Ratio IC50 in data set [8] was 42; in data set [3], 14.
`CN(C)C1CCN(Cc2cc3nc(-n4ncc5ccccc54)nc(N4CCOCC4)c3s2)CC1`: the half-maximal inhibitory concentration (IC50) in data set [6] came to 3200 nM; in data set [4], 16 nM. In addition, the Ratio IC50 in data set [3] came to 39.
As to `Cc1ncc2ccccc2c1-c1nc(N2CCOCC2)c2sc(CN3CCC(N(C)C)CC3)cc2n1`, the results for the IC50 in data set [6] and in data set [4] were 2000 nM and 29 nM, respectively. Also, the Ratio IC50 in data set [3] was 144.
Consider `CN(C)C1CCN(Cc2cc3nc(-n4ccc5ccccc54)nc(N4CCOCC4)c3s2)CC1`, for which the IC50 in data set [6] is 420 nM; in data set [4] it was 10 nM. In addition, the Ratio IC50 in data set [3] is 54.
Consider `CN(C)C1CCN(Cc2cc3nc(-c4n[nH]c5ccccc45)nc(N4CCOCC4)c3s2)CC1`, for which the Ratio IC50 in data set [3] worked out at 65. In addition, in data set [4], half-maximal inhibition (IC50) required 9.8 nM.
On to `Cc1cccc(-c2nc(N3CCOCC3)c3sc(CN4CCC(N(C)C)CC4)cc3n2)c1`, for which the IC50 in data set [6] came out at 1300 nM; in data set [4], 12 nM. The Ratio IC50 in data set [3] is 98.
With `CN(C)C1CCN(Cc2cc3nc(-c4cccc5c4CC(=O)N5)nc(N4CCOCC4)c3s2)CC1`, the values for the half-maximal inhibitory concentration (IC50) in data set [6] and in data set [4] were 3400 nM and 41 nM, respectively. Also, the Ratio IC50 in data set [3] is 8.
Regarding `CC(C)(C(N)=O)N1CCN(Cc2cc3nc(-c4c(F)cc(F)c5[nH]ccc45)nc(N4CCOCC4)c3s2)CC1`, the Ratio IC50 turned out to be 137 in data set [1], 96 in data set [3] and 350 in data set [5]. Moreover, the IC50 in data set [2] was determined as 0.6 µM; in data set [4] it was 6 nM.
